The target in one assay is KRas G12D (Homo sapiens, UniProt P01116, G12D). Kind of assay: biochemical.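 Note: TR-FRET displacement binding assay on KRas, read after a one-hour incubation at room temperature, IC50 fitted from percent-of-control values.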
Another assay relates to pERK in HCT116 cells. Kind of assay: Inhibition of KRas phosphorylation of ERK (Cisbio HTRF pERK assay). Conditions: Homo sapiens, HCT-116, read-out: Inhibition (HTRF IC50) of KRas-mediated Phosphorylation of ERK, HCT116. A general note: Time-resolved FRET reads energy transfer from a long-lived donor to a nearby acceptor.
The next assay addresses KRas WT (Homo sapiens, UniProt P01116). Kind of assay: biochemical.
For another assay, the target named is KRas G12R (Homo sapiens, UniProt P01116, G12R). Kind of assay: biochemical.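 Note: TR-FRET displacement assay of compound binding to KRas, read after one hour at room temperature, potency from a four-parameter fit of percent-of-control values.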
For the next assay, the system named is pERK in MKN1 cells. As to the kind of experiment: Inhibition of KRas phosphorylation of ERK (Cisbio HTRF pERK assay). Conditions: Homo sapiens, MKN-1, 3 h, read-out: Inhibition (HTRF IC50) of KRas-mediated Phosphorylation of ERK, MKN1.
The next assay concerns pERK in ASPC1 cells. The description is as above. Particulars: Homo sapiens, ASPC1, read-out: Inhibition (HTRF IC50) of KRas-mediated Phosphorylation of ERK, AsPC-1.
The target in a further assay is KRas G12V (Homo sapiens, UniProt P01116, G12V). As to the kind of experiment: biochemical.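 Note: KRas binding measured by TR-FRET displacement at room temperature, IC50 fitted from percent of control values.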
The target of another assay is KRas G12A (Homo sapiens, UniProt P01116, G12A). Kind of assay: biochemical.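 Note: binding to KRas measured by TR-FRET displacement after one hour at room temperature, IC50 from a four-parameter fit of percent-of-control values.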
For the next assay, the system named is pERK in H727 cells. Kind of assay: Inhibition of KRas phosphorylation of ERK (Cisbio HTRF pERK assay). Conditions: Homo sapiens, NCI-H727, read-out: Inhibition (HTRF IC50) of KRas-mediated Phosphorylation of ERK, H727.
A further assay deals with KRas G12C (Homo sapiens, UniProt P01116, G12C). As to the kind of experiment: biochemical.
For a further assay, the system named is pERK in PSN1 cells. As to the kind of experiment: Inhibition of KRas phosphorylation of ERK (Cisbio HTRF pERK assay). Particulars: Homo sapiens, PSN1, 3 h, read-out: Inhibition (HTRF IC50) of KRas-mediated Phosphorylation of ERK, PSN1.
For a further assay, the target named is KRas G12S (Homo sapiens, UniProt P01116, G12S). Kind of assay: biochemical.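 Note: TR-FRET displacement binding to KRas, read after one hour incubation at room temperature, IC50 from four-parameter fit of percent of control.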
KRas G12S, sequence (P01116 1-169 isoform P01116-2 G12S): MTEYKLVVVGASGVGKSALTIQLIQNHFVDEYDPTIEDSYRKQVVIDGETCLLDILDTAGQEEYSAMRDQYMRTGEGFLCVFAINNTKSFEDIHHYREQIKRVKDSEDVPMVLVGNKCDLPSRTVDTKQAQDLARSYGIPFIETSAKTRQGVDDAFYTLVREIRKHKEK

KRas G12V, sequence (P01116 1-169 isoform P01116-2 G12V): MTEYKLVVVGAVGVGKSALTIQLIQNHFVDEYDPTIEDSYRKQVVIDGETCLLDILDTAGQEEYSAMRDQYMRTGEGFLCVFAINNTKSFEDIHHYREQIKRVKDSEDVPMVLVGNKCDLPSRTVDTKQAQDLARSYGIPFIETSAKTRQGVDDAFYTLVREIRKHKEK
KRas WT, sequence (P01116 1-169 isoform P01116-2): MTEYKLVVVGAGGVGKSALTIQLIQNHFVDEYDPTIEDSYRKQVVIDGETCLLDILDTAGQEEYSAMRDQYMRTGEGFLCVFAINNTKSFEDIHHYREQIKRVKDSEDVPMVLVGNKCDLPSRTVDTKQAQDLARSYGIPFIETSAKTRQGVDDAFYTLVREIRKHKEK
KRas G12D, sequence (P01116 1-169 isoform P01116-2 G12D): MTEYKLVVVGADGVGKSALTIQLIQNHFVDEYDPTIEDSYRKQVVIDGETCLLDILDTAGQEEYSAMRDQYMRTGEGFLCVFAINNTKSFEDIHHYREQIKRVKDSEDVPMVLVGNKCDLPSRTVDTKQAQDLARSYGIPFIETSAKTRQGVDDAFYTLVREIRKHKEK
KRas G12C, sequence (P01116 1-169 isoform P01116-2 G12C): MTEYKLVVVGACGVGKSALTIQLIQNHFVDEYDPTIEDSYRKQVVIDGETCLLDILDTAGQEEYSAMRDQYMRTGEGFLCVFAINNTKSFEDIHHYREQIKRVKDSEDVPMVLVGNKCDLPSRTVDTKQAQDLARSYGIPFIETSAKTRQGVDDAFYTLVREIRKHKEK
KRas G12R, sequence (P01116 1-169 isoform P01116-2 G12R): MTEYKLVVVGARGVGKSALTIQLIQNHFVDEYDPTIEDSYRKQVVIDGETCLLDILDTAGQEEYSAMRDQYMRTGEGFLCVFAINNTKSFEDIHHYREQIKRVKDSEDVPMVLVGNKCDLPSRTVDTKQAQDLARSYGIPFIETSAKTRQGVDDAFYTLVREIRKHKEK
KRas G12A, sequence (P01116 1-169 isoform P01116-2 G12A): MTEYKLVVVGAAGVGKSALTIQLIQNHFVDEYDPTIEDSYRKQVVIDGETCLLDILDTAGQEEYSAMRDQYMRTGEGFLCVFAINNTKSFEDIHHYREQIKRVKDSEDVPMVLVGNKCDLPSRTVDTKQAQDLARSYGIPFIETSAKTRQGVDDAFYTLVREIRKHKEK

Take `C#Cc1c(F)ccc2cc(O)cc(-c3ncc4c(N5CC6C(=O)NC(=O)C6C5)nc(OC[C@@]56CCCN5C[C@H](F)C6)nc4c3F)c12` (stereo partly drawn) [Example 389, 5-(7-(8-ethynyl-7-fluoro-3-hydroxynaphthalen-1-yl)-8-fluoro-2-(((2R,7aS)-2-fluorohexahydro-1H-pyrrolizin-7a-yl)methoxy)pyrido[4,3-d]pyrimidin-4-yl)tetrahydropyrrolo[3,4-c]pyrrole-1,3(2H,3aH)-dione]: the IC50 at KRas G12D was ≤ 2 nM; with pERK in HCT116 cells, 1090 nM; against KRas WT it was ≤ 2 nM; against KRas G12R it was 3 nM; in the assay on pERK in MKN1 cells it was 95 nM; in the assay on pERK in ASPC1 cells it was 268 nM. In addition, the IC50 at KRas G12V is ≤ 2 nM; against KRas G12A, ≤ 2 nM; in the assay on pERK in H727 cells it was 970 nM; against KRas G12C, ≤ 2 nM; with pERK in PSN1 cells, ≥ 10000 nM; on KRas G12S it was ≤ 2 nM.
Take `O=C1NCC2(CCCN(c3nc(OC[C@@]45CCCN4C[C@H](F)C5)nc4c(F)c(-c5cc(O)cc6ccc(F)c(Br)c56)ncc34)C2)N1` (stereo partly drawn) [Example 409, 7-(7-(8-bromo-7-fluoro-3-hydroxynaphthalen-1-yl)-8-fluoro-2-(((2R,7aS)-2-fluorohexahydro-1H-pyrrolizin-7a-yl)methoxy)pyrido[4,3-d]pyrimidin-4-yl)-1,3,7-triazaspiro[4.5]decan-2-one]: the half-inhibitory concentration (IC50) on KRas G12D was ≤ 2 nM; with pERK in HCT116 cells, 1180 nM; on KRas G12R, ≤ 2 nM; with pERK in MKN1 cells, 94 nM; in the assay with pERK in ASPC1 cells, 398 nM; against KRas G12V, ≤ 2 nM. Also, the IC50 in the assay with pERK in H727 cells is 593 nM; in the assay on pERK in PSN1 cells, ≥ 10000 nM.
As for `C#Cc1c(F)ccc2cc(O)cc(-c3ncc4c(N5CCCC6(CNC6=O)C5)nc(OC[C@@]56CCCN5C[C@H](F)C6)nc4c3F)c12` (stereo partly drawn) [Example 392, 6-(7-(8-ethynyl-7-fluoro-3-hydroxynaphthalen-1-yl)-8-fluoro-2-(((2R,7aS)-2-fluorohexahydro-1H-pyrrolizin-7a-yl)methoxy)pyrido[4,3-d]pyrimidin-4-yl)-2,6-diazaspiro[3.5]nonan-1-one], the half-inhibitory concentration (IC50) is ≤ 2 nM at KRas G12D; 2250 nM in the assay on pERK in HCT116 cells; 3 nM on KRas G12R; 336 nM with pERK in MKN1 cells; 1180 nM in the assay with pERK in ASPC1 cells; 3 nM on KRas G12V. Further, the figures for the IC50 in the assay with pERK in H727 cells and with pERK in PSN1 cells were 1370 nM and 6020 nM, respectively.
`O=C1NC(=O)C2(CCCN(c3nc(OC[C@@]45CCCN4C[C@H](F)C5)nc4c(F)c(-c5cc(O)cc6ccc(F)c(Br)c56)ncc34)C2)N1` (stereo partly drawn) [Example 410, 7-(7-(8-bromo-7-fluoro-3-hydroxynaphthalen-1-yl)-8-fluoro-2-(((2R,7aS)-2-fluorohexahydro-1H-pyrrolizin-7a-yl)methoxy)pyrido[4,3-d]pyrimidin-4-yl)-1,3,7-triazaspiro[4.5]decane-2,4-dione]: the half-maximal inhibitory concentration (IC50) at KRas G12D is ≤ 2 nM; in the assay on pERK in HCT116 cells it was 602 nM; on KRas G12R it was ≤ 2 nM; in the assay on pERK in MKN1 cells it was 157 nM; in the assay with pERK in ASPC1 cells it was 365 nM; at KRas G12V it was ≤ 2 nM. Moreover, the half-inhibitory concentration (IC50) came to 603 nM with pERK in H727 cells and 3150 nM in the assay with pERK in PSN1 cells.
Take `CCc1c(F)ccc2cc(O)cc(-c3ncc4c(N5CCOCC6(C5)NC(=O)NC6=O)nc(OC[C@@]56CCCN5C[C@H](F)C6)nc4c3F)c12` (stereo partly drawn) [Example 337, 10-(7-(8-ethyl-7-fluoro-3-hydroxynaphthalen-1-yl)-8-fluoro-2-(((2R,7aS)-2-fluorohexahydro-1H-pyrrolizin-7a-yl)methoxy)pyrido[4,3-d]pyrimidin-4-yl)-7-oxa-1,3,10-triazaspiro[4.6]undecane-2,4-dione]: the IC50 was found to be 3 nM against KRas G12D; 438 nM in the assay on pERK in HCT116 cells; 5 nM against KRas G12R; 49 nM with pERK in MKN1 cells; 514 nM with pERK in ASPC1 cells; 3 nM against KRas G12V. The IC50 is 395 nM in the assay with pERK in H727 cells and 1840 nM in the assay with pERK in PSN1 cells.
As to `CCc1c(F)ccc2cc(O)cc(-c3ncc4c(N5CCC[C@]6(C5)NC(=O)NC6=O)nc(OCC5(CN6CCCC6)CC5)nc4c3F)c12` [Example 322, (R)-7-(7-(8-ethyl-7-fluoro-3-hydroxynaphthalen-1-yl)-8-fluoro-2-((1-(pyrrolidin-1-ylmethyl)cyclopropyl)methoxy)pyrido[4,3-d]pyrimidin-4-yl)-1,3,7-triazaspiro[4.5]decane-2,4-dione], the IC50 was ≤ 2 nM against KRas G12D; 300 nM in the assay on pERK in HCT116 cells; ≤ 2 nM against KRas WT; ≤ 2 nM on KRas G12R; 32 nM with pERK in MKN1 cells; 484 nM in the assay with pERK in ASPC1 cells. For the same molecule, the IC50 is ≤ 2 nM on KRas G12V, 255 nM in the assay with pERK in H727 cells, ≤ 2 nM on KRas G12C and 9090 nM in the assay with pERK in PSN1 cells.
In the case of `CCc1c(F)ccc2cc(O)cc(-c3ncc4c(N5CCCC6(C5)NC(=O)NC6=O)nc(OCC5(CN(C)C)CC5)nc4c3F)c12` (centres unmarked) [Example 359, 7-(2-((1-((dimethylamino)methyl)cyclopropyl)methoxy)-7-(8-ethyl-7-fluoro-3-hydroxynaphthalen-1-yl)-8-fluoropyrido[4,3-d]pyrimidin-4-yl)-1,3,7-triazaspiro[4.5]decane-2,4-dione], the IC50 on KRas G12D is ≤ 2 nM; in the assay with pERK in HCT116 cells, 576 nM; against KRas G12R it was ≤ 2 nM; in the assay with pERK in MKN1 cells, 60 nM; with pERK in ASPC1 cells it was 345 nM; on KRas G12V it was ≤ 2 nM. The 50% inhibitory concentration (IC50) with pERK in H727 cells was found to be 782 nM; in the assay on pERK in PSN1 cells, 4100 nM.
Regarding `O=C1NC(=O)[C@]2(CCCN(c3nc(OC[C@@]45CCCN4C[C@H](F)C5)nc4c(F)c(-c5cc(O)cc6ccc(F)c(Cl)c56)ncc34)C2)N1` [Example 413, (R)-7-(7-(8-chloro-7-fluoro-3-hydroxynaphthalen-1-yl)-8-fluoro-2-(((2R,7aS)-2-fluorohexahydro-1H-pyrrolizin-7a-yl)methoxy)pyrido[4,3-d]pyrimidin-4-yl)-1,3,7-triazaspiro[4.5]decane-2,4-dione], the IC50 against KRas G12D is ≤ 2 nM; in the assay on pERK in HCT116 cells, 484 nM; at KRas G12R it was 3 nM; in the assay with pERK in MKN1 cells it was 33 nM; in the assay on pERK in ASPC1 cells, 479 nM; against KRas G12V, ≤ 2 nM. The values for the concentration for half-maximal inhibition (IC50) in the assay with pERK in H727 cells and with pERK in PSN1 cells were 408 nM and 2530 nM, respectively.
For the molecule `O=C1NC[C@]2(CCCN(c3nc(OC[C@@]45CCCN4C[C@H](F)C5)nc4c(F)c(-c5cc(O)cc6ccc(F)c(Cl)c56)ncc34)C2)N1` [Example 415, (S)-7-(7-(8-chloro-7-fluoro-3-hydroxynaphthalen-1-yl)-8-fluoro-2-(((2R,7aS)-2-fluorohexahydro-1H-pyrrolizin-7a-yl)methoxy)pyrido[4,3-d]pyrimidin-4-yl)-1,3,7-triazaspiro[4.5]decan-2-one], the 50% inhibitory concentration (IC50) on KRas G12D is ≤ 2 nM; in the assay with pERK in HCT116 cells, 2560 nM; at KRas G12R, 3 nM; with pERK in MKN1 cells, 46 nM; in the assay with pERK in ASPC1 cells it was 548 nM; at KRas G12V it was 40 nM. Moreover, the IC50 in the assay with pERK in H727 cells was 903 nM; in the assay with pERK in PSN1 cells it was ≥ 10000 nM.
With `NS(=O)(=O)CC1CCCN(c2nc(OC[C@@]34CCCN3C[C@H](F)C4)nc3c(F)c(-c4cc(O)cc5ccc(F)c(Cl)c45)ncc23)C1` (stereo partly drawn) [Example 414, 1-(1-(7-(8-chloro-7-fluoro-3-hydroxynaphthalen-1-yl)-8-fluoro-2-(((2R,7aS)-2-fluorotetrahydro-1H-pyrrolizin-7a(5H)-yl)methoxy)pyrido[4,3-d]pyrimidin-4-yl)piperidin-3-yl)methanesulfonamide], the IC50 against KRas G12D was ≤ 2 nM; in the assay on pERK in HCT116 cells, 514 nM; against KRas G12R, 4 nM; with pERK in MKN1 cells, 32 nM; in the assay on pERK in ASPC1 cells it was 1330 nM; against KRas G12V, ≤ 2 nM. In addition, the IC50 with pERK in H727 cells was determined as 269 nM; with pERK in PSN1 cells it was 3480 nM.
Turning to `CCc1c(F)ccc2cc(O)cc(-c3ncc4c(N5CCC[C@]6(CC(=O)N6)C5)nc(OCC5(CN6CCCC6)CC5)nc4c3F)c12` [Example 319, (S)-6-(7-(8-ethyl-7-fluoro-3-hydroxynaphthalen-1-yl)-8-fluoro-2-((1-(pyrrolidin-1-ylmethyl)cyclopropyl)methoxy)pyrido[4,3-d]pyrimidin-4-yl)-1,6-diazaspiro[3.5]nonan-2-one], the IC50 against KRas G12D is ≤ 2 nM; with pERK in HCT116 cells it was 6360 nM; against KRas WT it was ≤ 2 nM; on KRas G12R, ≤ 2 nM; in the assay on pERK in MKN1 cells, 120 nM; in the assay with pERK in ASPC1 cells, 433 nM. Moreover, the 50% inhibitory concentration (IC50) is ≤ 2 nM on KRas G12V; ≤ 2 nM against KRas G12A; 808 nM in the assay on pERK in H727 cells; ≤ 2 nM on KRas G12C; ≥ 10000 nM in the assay on pERK in PSN1 cells; ≤ 2 nM at KRas G12S.

In general, IC50 refers to the concentration needed to halve the response being measured.

The values above are taken from patent US12398154B2, “Azaquinazoline pan-KRas inhibitors” (Mirati Therapeutics, Inc., priority 2020, dated 2025).
